Patent US9567629B2, “Labeled enzyme compositions, methods and systems” (LIFE TECHNOLOGIES CORPORATION, priority 2009, dated 2017)

What was measured:
[1] = test system: [enzyme•DNA•nucleotide] ternary complex with AF647-C6-dG6P; assay: Stopped-flow measurements of t−1 (nucleotide dissociation from ternary complex); type: biochemical; details: 330 nM polymerase, 100 nM duplex, 7 μM AF647-C6-dG6P, chase 50 μM non-labeled dNTP, 2 mM MnCl2
Method: The stopped-flow techniques for measuring t−1 (1/k−1) followed the techniques described by M. Bakhtina (2009 Biochemistry 48:3197-3208).
The rate of the nucleotide dissociation (k1) from the ternary complex of [enzyme•DNA•nucleotide] was measured in an Applied Photophysics SX20 stopped-flow spectrometer by monitoring changes […] a duplex Alexa fluor 546 dye-labeled-DNA template following the mixing of the [enzyme•DNA•labeled nucleotide] ternary complex with 50 μM cognate non-labeled deoxynucleoside triphosphate in a buffer containing 50 mM Tris-HCl (pH 7.5), 50 mM NaCl, 4 mM DTT, 0.2% BSA, and 2 mM MnCl2.
The ternary complexes were prepared using: 330 nM polymerase, 100 nM template/primer duplex, and 7 μM terminal phosphate-labeled nucleotides (AF647-C6-dG6P).
The averaged stopped-flow fluorescence traces (>1.5 msec) were fitted with a single exponential equation (2) to extrapolate the rate of the nucleotide dissociation (k−1) from the [enzyme•DNA•nucleotide] ternary complex. Fluorescence=A1*e^−k−1*t+C (equation 2) where A1 represents the corresponding fluorescence amplitude, C is an offset constant, and k−1 and the observed rate constants for the fluorescence transition.

[2] = test system: dye-labeled primer-template duplex with AF647-C6-dG6P; assay: Stopped-flow measurements of tpol (nucleotide incorporation kinetics); type: biochemical; details: 330 nM polymerase, 100 nM template/primer duplex, 7 μM AF647-C6-dG6P, 2 mM MnCl2
Method: In this example, the t−1 and tpol values of a Phi-29 polymerase comprising the amino acid sequence of SEQ ID NO: 3 and a B103 polymerase comprising the amino acid sequence of SEQ ID NO: 34 (referred to as “mB103” in the table below) and including amino acid substitutions at various positions were measured using a stopped-flow procedure. The stopped-flow techniques for measuring tpol (1/kpol) followed the techniques described by MP Roettger (2008 Biochemistry 47:9718-9727; M. Bakhtina 2009 Biochemistry 48:3197-320).
The template sequence (SEQ ID NO: 44) further included an Alexa Fluor 546 dye moiety bonded to the 5′ position of the template.
The kinetics of nucleotide incorporation by each polymerase was measured in an Applied Photophysics SX20 stopped-flow spectrometer by monitoring changes in fluorescence from the dye-labeled primer-template duplex complexed to enzyme, following the mixing of the enzyme-DNA complex with dye-labeled nucleotides. […]
The primer and template were annealed to form a dye-labeled primer-template duplex using standard methods. […] The dye-labeled nucleotide AF647-C6-dG6P was then added to a final concentration of 7 μM, and the resulting fluorescence was monitored over time. […]

## Phi-29 (exo−): exonuclease-minus Phi-29 polymerase (Phi-29 polymerase comprising SEQ ID NO: 3) [reference compound]
[1]
  t−1: 27
[2]
  tpol: 11
